Tests used:
[1] = tested on: SAP; test: SAP binding to experimentally induced amyloid deposits in mice; type: in vivo, mouse; settings: compared with 1-(3-Mercapto-2-methyl-1-oxopropyl)-D-proline
Source text: The potency of (R)-1-[6-(R)-2-Carboxy-pyrrolidin-1-yl]-6-oxo-hexanoyl]pyrrolidine-2-carboxylic acid in vivo was initially considered to be consistent with its lower IC50 value in vitro. However the decameric assembly of pentameric SAP molecules, induced by the cross linking capacity of the palindromic drug, is an abnormal molecular configuration which, according to the present invention, will be recognised in vivo and promptly cleared from the circulation. This action of the drug, leading to massive depletion of SAP from the plasma, makes a critical contribution to removal of SAP from the amyloid deposits because the SAP in amyloid is derived from, and in equilibrium with, the plasma SAP pool.

[2] = target: serum amyloid P component (SAP) (Homo sapiens, UniProt P02743); test: Inhibition of SAP binding to amyloid fibrils in vitro
Chain of serum amyloid P component (SAP) (P02743 20-223): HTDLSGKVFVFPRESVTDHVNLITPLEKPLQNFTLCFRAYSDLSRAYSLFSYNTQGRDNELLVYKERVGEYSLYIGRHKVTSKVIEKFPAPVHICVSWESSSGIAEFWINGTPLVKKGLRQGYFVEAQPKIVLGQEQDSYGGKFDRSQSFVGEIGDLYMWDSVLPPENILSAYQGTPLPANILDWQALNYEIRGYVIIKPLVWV
Source text: A method for screening and testing inhibitors of serum amyloid P component (SAP) binding to amyloid fibrils in vitro was devised and used in collaboration with F Hoffmann-La Roche Ltd to identify a suitable lead molecule for drug development. A library of candidate compounds was screened accordingly. The subsequent collaborative medicinal chemistry programme led to synthesis of a family of dicarboxylic acid, pyrrolidone ring containing molecules, of which the most studied is (R)-1-[6-(R)-2-Carboxy-pyrrolidin-1-yl]-6-oxo-hexanoyl]pyrrolidine-2-carboxylic acid. This molecule and related compounds (EP-A-0915088) are modestly potent inhibitors of SAP binding to amyloid fibrils in vitro, with IC50 values around 0.5-1.0 μM.
Further studies determined that each of the following bis-D-Proline compounds were tested for their ability to deplete SAP in vivo as described above. Each of the compounds identified below successfully depleted SAP. In addition, certain of the compounds were further tested for in vitro inhibition of binding of SAP to amyloid fibrils in accordance with the protocol provided in EP 0915088 at page 10, as referenced above. The results are shown in the second column below, where applicable.

[3] = target: T1, circulating SAP (Mus musculus, UniProt P12246); test: Circulating SAP in normal wild type mice; type: in vivo; settings: none of the routes caused depletion
T1 construct: all the endogenous mouse SAP in the deposits; from tissue; host or cells: mice in vivo: amyloidotic organs, or plasma of normal wild type mice
T1 sequence (P12246 21-224): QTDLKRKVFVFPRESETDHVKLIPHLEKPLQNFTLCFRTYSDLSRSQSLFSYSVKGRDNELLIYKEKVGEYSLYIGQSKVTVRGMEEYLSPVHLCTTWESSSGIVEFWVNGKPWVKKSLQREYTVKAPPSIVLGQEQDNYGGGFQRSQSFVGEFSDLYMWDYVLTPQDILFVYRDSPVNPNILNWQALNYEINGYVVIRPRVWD
Procedure: When (R)-1-[6-(R)-2-Carboxy-pyrrolidin-1-yl]-6-oxo-hexanoyl]pyrrolidine-2-carboxylic acid was administered by continuous infusion for 5 days via an indwelling osmotic pump, it dissociated both radiolabelled human SAP tracer, with which the amyloid deposits had previously been loaded, and all the endogenous mouse SAP in the deposits (FIG. 3). […] The SAP-(R)-1-[6-(R)-2-Carboxy-pyrrolidin-1-yl]-6-oxo-hexanoyl]pyrrolidine-2-carboxylic acid complex is evidently recognised as abnormal in vivo and swiftly removed from the circulation, but is apparently formed and/or cleared less efficiently in vivo with mouse SAP compared to human SAP.

[4] = target: T2, plasma SAP (Homo sapiens, UniProt P02743); test: Subcutaneous injection in patients with systemic amyloidosis: plasma SAP; type: in vivo; settings: subcutaneous injection 0.25 mg/kg/day in 12 hourly divided doses
T2 construct: from tissue; host or cells: plasma of patients in vivo
T2 sequence (P02743 20-223): as the sequence (P02743 20-223) above
Procedure: The doses of (R)-1-[6-(R)-2-Carboxy-pyrrolidin-1-yl]-6-oxo-hexanoyl]pyrrolidine-2-carboxylic acid (desapin) shown were given by 12 hourly subcutaneous injections to two individual patients with systemic amyloidosis, and with small and moderate amyloid loads respectively. The disappearance of circulating SAP was effectively the same as during intravenous infusion of the drug, and in the patient illustrated in the right panel, who had received a tracer dose of ^123I-SAP, there was accumulation of SAP in the liver and accelerated clearance from the spleen.

[5] = target: SAP (Homo sapiens, UniProt P02743); test: Circulating human SAP in human SAP transgenic mice, drug in drinking water; type: in vivo, mouse; set-up: on circulating human SAP values in human SAP transgenic mice; from tissue; host or cells: plasma of human SAP transgenic mice; settings: drug in the drinking water
Chain of SAP (Homo sapiens, UniProt P02743) (P02743 20-223): as the sequence (P02743 20-223) above
Procedure: Clearance from the amyloid deposits, catabolism and excretion of the human SAP tracer were monitored globally by whole body counting of the mice (left), and the total amount of mouse SAP in the amyloidotic organs was determined after killing the animals on day 5 (right). […] Immediately after the 15 minute bleed, two groups, one that had received human SAP and the other mouse SAP, received a single intraperitoneal injection of 5 mg of (R)-1-[6-(R)-2-Carboxy-pyrrolidin-1-yl]-6-oxo-hexanoyl]pyrrolidine-2-carboxylic acid (desapin). Tracer remaining in the circulation is expressed as the mean (SD) percentage of the amount at the 15 minute time point for each group. […] In one of each of the pairs of groups receiving mouse or human SAP respectively, the tracer had been mixed with (R)-1-[6-(R)-2-Carboxy-pyrrolidin-1-yl]-6-oxo-hexanoyl]pyrrolidine-2-carboxylic acid (desapin) and incubated in vitro before injection into the animals. Tracer remaining in the circulation is expressed as mean (SD) total radioactivity per gram of blood in each group. Bottom panel: effect of administration of (R)-1-[6-(R)-2-Carboxy-pyrrolidin-1-yl]-6-oxo-hexanoyl]pyrrolidine-2-carboxylic acid (desapin) in the drinking water at the concentrations shown, on circulating human SAP values in human SAP transgenic mice. Mice of approximately 20 g body weight consume about 3 ml water per day. […]

O=C(O)[C@H]1CCCN1C(=O)CCCCC(=O)N1CCC[C@@H]1C(=O)O [(R)-1-[6-(R)-2-Carboxy-pyrrolidin-1-yl]-6-oxo-hexanoyl]pyrrolidine-2-carboxylic acid]
Activity in inhibiting SAP binding and dissociating SAP from deposits, relative to lead compound [1]: more active | Potency as inhibitor of SAP binding to amyloid fibrils relative to original lead compound ([2]; compared with 1-(3-Mercapto-2-methyl-1-oxopropyl)-D-proline): more potent inhibitors than the original lead compound | IC50 ([2]; read-out: IC50, inhibition of SAP binding to amyloid fibrils in vitro): 500 to 1000 nM | Routes that caused depletion of circulating SAP in normal wild type mice [3]: neither oral administration, nor intermittent injection or continuous infusion | Effect on plasma SAP compared with intravenous infusion [4]: the same effect | Circulating human SAP [5]: rapidly depleted

Reference: US8173694B2, “Therapeutic agent” (Pentraxin Therapeutics Limited, priority 2001, dated 2012)
